Reference: ChEMBL document CHEMBL4177666, “Compound design guidelines for evading the efflux and permeation barriers of Escherichia coli with the oxazolidinone class of antibacterials: Test case for a general approach to improving whole cell Gram-negative activity” (Bioorg Med Chem Lett, 2017)
Converted amounts (≈) assume the structure as drawn.

How the values were obtained:
Assay type in all cases: functional
[1] = molecular target: Bacterial 70S ribosome; assay: Inhibition of protein synthesis in Escherichia coli ribosomes incubated for 1 hr at 37 degC by SDS-PAGE and Gaussia luciferase reporter gene assay
[2] = test system: Escherichia coli; assay: Antibacterial activity against gram-negative Escherichia coli MG1655 membrane permeabilized mutant in presence of polymyxinnonapeptide by CLSI broth microdilution method
[3] = test system: Escherichia coli; assay: Efflux index, ratio of MIC for wild type Escherichia coli MG1655 to MIC for Escherichia coli MG1655 expressing AcrAB-TolC efflux pump deletion mutant
[4] = test system: Escherichia coli; assay: Antibacterial activity against gram-negative Escherichia coli MG1655 expressing AcrAB-TolC efflux pump deletion mutant by CLSI broth microdilution method
[5] = test system: Escherichia coli; assay: Antibacterial activity against gram-negative wild type Escherichia coli MG1655 by CLSI broth microdilution method
[6] = test system: Escherichia coli; assay: Permeability index, ratio of MIC for wild type Escherichia coli MG1655 to MIC for Escherichia coli MG1655 membrane permeabilized mutant in presence of polymyxinnonapeptide
[7] = test system: Staphylococcus aureus; assay: Antibacterial activity against methicillin-susceptible Staphylococcus aureus ATCC 29213 by CLSI broth microdilution method

SMILES | IC50 [1] [µM] | MIC [2] [µg/mL] | Ratio [3] | MIC [4] [µg/mL] | MIC [5] [µg/mL] | Ratio [6] | MIC [7] [µg/mL]
CC(=O)NC[C@H]1CN(c2ccc(N3CCOCC3)c(F)c2)C(=O)O1 [LINEZOLID] | 23.7 | 36 | 12 | 11 (≈ 32.6 µM) | 130 (≈ 385 µM) | 3.6 | 3.1 (≈ 9.19 µM)
NCc1ccc(-c2ccc(N3C[C@H](C(N)=O)OC3=O)cc2F)cc1 | – | – | – | – | > 256 | – | > 64
NCc1ccc(-c2ccc(N3C[C@H](Cn4cc(O)nn4)OC3=O)cc2F)cc1 | – | – | >2 | 32 (≈ 83.5 µM) | > 64 | – | 8 (≈ 20.9 µM)
O=C1O[C@@H](CO)CN1c1ccc(O)cc1F | – | – | – | – | > 256 | – | > 64
N#Cc1ccc(-c2ccc(N3C[C@H](CN)OC3=O)cc2F)cc1O | – | – | – | – | > 256 | – | 64 (≈ 196 µM)
CC(=O)NC[C@H]1CN(c2ccc(-c3cnc(C#N)c(O)c3)c(F)c2)C(=O)O1 | – | – | >2 | 128 (≈ 346 µM) | > 256 | – | 32 (≈ 86.4 µM)
CC(=O)NC[C@H]1CN(c2ccc(-c3ccc(CN)cc3)c(F)c2)C(=O)O1 | – | 32 | 8 | 8 (≈ 22.4 µM) | 64 (≈ 179 µM) | 2 | 2 (≈ 5.6 µM)
O=C1O[C@@H](CO)CN1c1ccc(-c2ccc(F)c(O)c2)[n+]([O-])c1 | – | – | – | – | > 256 | – | 64 (≈ 200 µM)
CCOc1cn(C[C@H]2CN(c3ccc(-c4ccc(CN)cc4)c(F)c3)C(=O)O2)nn1 | – | – | >4 | 32 (≈ 77.8 µM) | > 64 | – | 16 (≈ 38.9 µM)
O=C1O[C@@H](CO)CN1c1ccc(-c2cc(O)ccc2F)cc1 | – | 32 | >16 | 16 (≈ 52.8 µM) | > 256 | >8 | 1 (≈ 3.3 µM)
N/C(=N\O)c1ccc(-c2ccc(N3C[C@H](CO)OC3=O)cc2)cc1 | – | 32 | >32 | 8 (≈ 24.4 µM) | > 256 | >8 | 2 (≈ 6.11 µM)
NCc1ccc(-c2ccc(N3C[C@H](CNC(=O)C(F)F)OC3=O)cc2F)cc1 | – | 32 | 32 | 4 (≈ 10.2 µM) | 128 (≈ 325 µM) | 4 | 2 (≈ 5.08 µM)
N#Cc1cc(O)cc(-c2ccc(N3C[C@H](Cn4nccn4)OC3=O)cc2F)c1 | – | 64 | >4 | 64 (≈ 169 µM) | > 256 | >4 | 32 (≈ 84.4 µM)
NC[C@H]1CN(c2ccc(N3CCOCC3)c(F)c2)C(=O)O1 | – | – | – | – | > 256 | – | > 64
O=C(O)c1ccc(N2C[C@H](CO)OC2=O)cc1F | – | – | – | – | > 256 | – | > 64
N#Cc1ccc(-c2ccc(N3C[C@H](CO)OC3=O)nc2)cc1O | – | – | – | – | > 256 | – | > 64
NCCC#Cc1ccc(N2C[C@H](CO)OC2=O)cc1F | – | – | – | – | > 256 | – | > 64
COc1ccc(N2C[C@H](CO)OC2=O)cc1O | – | – | – | – | > 256 | – | > 64
NCc1cc(F)c(-c2ccc(N3C[C@H](CO)OC3=O)cc2F)cc1O | – | – | 1 | – | – | 2 | –
CC(=O)NC[C@H]1CN(c2ccc(-c3ccc(C#N)c(O)c3)c(F)c2)C(=O)O1 | – | 32 | >8 | 32 (≈ 86.6 µM) | > 256 | >8 | 2 (≈ 5.41 µM)
NCc1ccc(-c2ccc(N3C[C@H](Cn4cc(CN)nn4)OC3=O)cc2F)cc1 | – | 128 | >2 | 128 (≈ 323 µM) | > 256 | >2 | 8 (≈ 20.2 µM)
NCc1ccc(-c2ccc(N3C[C@H](CO)OC3=O)cc2O)cc1 | – | – | – | – | > 256 | – | > 64
N/C(=N\O)c1ccc(-c2ccc(N3C[C@H](CO)OC3=O)cc2F)cn1 | – | 16 | >16 | 16 (≈ 46.2 µM) | > 256 | >16 | 1 (≈ 2.89 µM)
N/C(=N\O)c1ccc(-c2ccc(N3C[C@H](CNC(=O)C(F)(F)F)OC3=O)cc2F)cc1O | – | – | – | – | > 256 | – | > 64
NCc1ccc(-c2ccc(N3C[C@H](CN4CCOC4=O)OC3=O)cc2F)cc1 | – | – | >=2 | 256 (≈ 664 µM) | > 256 | – | 16 (≈ 41.5 µM)
NCc1ccc(-c2ccc(N3C[C@H](Cn4nncc4C(=O)O)OC3=O)cc2F)cc1 | – | – | – | – | > 128 | – | 16 (≈ 38.9 µM)
COc1cc(N2C[C@H](CO)OC2=O)ccc1-c1ccc(CN)cc1 | – | – | – | – | > 256 | – | > 64
O=C(NC[C@H]1CN(c2ccc(-c3ccc(F)c(O)c3)c(F)c2)C(=O)O1)C(F)F | – | 8 | >8 | 4 (≈ 10 µM) | > 32 | >4 | 1 (≈ 2.51 µM)
